Laboratory results published in PMC4890880 (ACS infectious diseases, 2016).
Like-named read-outs stand apart in the source and are kept apart here.

What was measured:
HepG2-A16-CD81EGFP cells = details: for IC50: read-out: Tox_IC50, HepG2 cytotoxicity
[1] = test system: Plasmodium berghei (Pb-Luc) exoerythrocytic-stage parasites; details: for IC50: read-out: PbLuc_IC50
[2] = sheet 2nd round, maximal inhibition in dose response
[3] = first series of dose-response columns, fraction of control
[4] = first series, fraction of control
[5] = sheet 2nd round, Broad compounds, dose response
[6] = second series of dose-response columns, fraction of control
[7] = second series, fraction of control
[8] = 2nd round, maximal inhibition in dose series
[9] = first series of columns, fraction of control
[10] = second series of columns (replicate), fraction of control

`C[C@H](CO)N1C[C@H](C)[C@@H](CN(C)C(=O)Nc2ccc(C(F)(F)F)cc2)Oc2c(NC(=O)c3ccc(-c4nccs4)cc3)cccc2C1=O` [BRD-K70940716-001-01-0] was tested, and the IC50 (HepG2-A16-CD81EGFP cells; sheet 2nd round) was > 10 µM, the “Tox_max_inhibition (%)” value (HepG2-A16-CD81EGFP cells; [2]) was 7% and the “normalized signal at concentration 10” value [1, 3] was 1.176. For the same compound, the “normalized signal at concentration 0.000508053” value [1, 4] was 0.7879, the “normalized signal at concentration 0.00152416” value [1, 4] was 0.8471 and the “normalized signal at concentration 0.00457247” value [1, 4] was 0.871. The “normalized signal at concentration 0.0137174” value [1, 4] was 0.8913, the “normalized signal at concentration 0.0411523” value [1, 4] was 0.831 and the “normalized signal at concentration 0.123457” value [1, 4] was 0.9514. The “normalized signal at concentration 0.37037” value [1, 4] was 0.8506, the “normalized signal at concentration 1.11111” value [1, 4] was 0.9296 and the “normalized signal at concentration 3.33333” value [1, 4] was 1.136. The IC50 [1, 5] was > 10 µM, the “normalized signal at concentration 10” value [1, 6] was 1.096 and the “normalized signal at concentration 0.000508053” value [1, 7] was 1.058. For the same compound, the “normalized signal at concentration 0.00152416” value [1, 7] was 0.9924, the “normalized signal at concentration 0.00457247” value [1, 7] was 0.8277 and the “normalized signal at concentration 0.0137174” value [1, 7] was 1.075. For the same compound, the “normalized signal at concentration 0.0411523” value [1, 7] was 1.139, the “normalized signal at concentration 0.123457” value [1, 7] was 0.9792 and the “normalized signal at concentration 0.37037” value [1, 7] was 1.201. The “normalized signal at concentration 1.11111” value [1, 7] was 1.005, the “normalized signal at concentration 3.33333” value [1, 7] was 1.1649 and the “PbLuc_max_inhibition (%)” value [1, 2] was 21%.

For `Cc1cccc(-c2ccc(C3[C@@H]4CN(C(=O)CN(C)C)C[C@H]3N4)cc2)c1` (stereo partly drawn) [BRD-K25161260-019-01-1], the IC50 (HepG2-A16-CD81EGFP cells; sheet 2nd round) was > 10 µM, the “Tox_max_inhibition (%)” value (HepG2-A16-CD81EGFP cells; [2]) was 5.5% and the “normalized signal at concentration 10” value [1, 3] was 0.87. For the same compound, the “normalized signal at concentration 0.000508053” value [1, 4] was 0.66, the “normalized signal at concentration 0.00152416” value [1, 4] was 0.79 and the “normalized signal at concentration 0.00457247” value [1, 4] was 0.92. The “normalized signal at concentration 0.0137174” value [1, 4] was 0.97, the “normalized signal at concentration 0.0411523” value [1, 4] was 0.91 and the “normalized signal at concentration 0.123457” value [1, 4] was 0.95. For the same compound, the “normalized signal at concentration 0.37037” value [1, 4] was 0.78, the “normalized signal at concentration 1.11111” value [1, 4] was 0.60 and the “normalized signal at concentration 3.33333” value [1, 4] was 0.90. The IC50 [1, 5] was > 10 µM, the “normalized signal at concentration 10” value [1, 6] was 0.87 and the “normalized signal at concentration 0.000508053” value [1, 7] was 0.94. The “normalized signal at concentration 0.00152416” value [1, 7] was 0.94, the “normalized signal at concentration 0.00457247” value [1, 7] was 1.11 and the “normalized signal at concentration 0.0137174” value [1, 7] was 1.12. The “normalized signal at concentration 0.0411523” value [1, 7] was 1.00, the “normalized signal at concentration 0.123457” value [1, 7] was 1.11 and the “normalized signal at concentration 0.37037” value [1, 7] was 0.98. For the same compound, the “normalized signal at concentration 1.11111” value [1, 7] was 0.83, the “normalized signal at concentration 3.33333” value [1, 7] was 0.97 and the “PbLuc_max_inhibition (%)” value [1, 2] was 40%.

In the case of `C[C@@H]1CN([C@H](C)CO)C(=O)c2cccc(NC(=O)c3ccc(-c4nccs4)cc3)c2O[C@H]1CN(C)C(=O)Nc1ccc(C(F)(F)F)cc1` [BRD-K64517877-001-01-9], the “Tox_max_inhibition (%)” value (HepG2-A16-CD81EGFP cells; [8]) is reported as 9%, the IC50 (HepG2-A16-CD81EGFP cells; 2nd round, unit inferred) is reported as > 10 µM and the “PbLuc_max_inhibition (%)” value [1, 8] is reported as 27%. The “normalized signal at 0.000508053 (first series)” value ([1]; concentration 0.000508053, first replicate series, fraction of control) was 0.8077, the “normalized signal at 0.000508053 (second series)” value ([1]; concentration 0.000508053, second replicate series, fraction of control) was 1.002 and the “normalized signal at 0.00152416 (first series)” value ([1]; concentration 0.00152416, first replicate series, fraction of control) was 0.8666. For the same compound, the “normalized signal at 0.00152416 (second series)” value ([1]; concentration 0.00152416, second replicate series, fraction of control) was 0.9304, the “normalized signal at 0.00457247 (first series)” value ([1]; concentration 0.00457247, first replicate series, fraction of control) was 0.8925 and the “normalized signal at 0.00457247 (second series)” value ([1]; concentration 0.00457247, second replicate series, fraction of control) was 0.7834. The “normalized signal at 0.0137174 (first series)” value ([1]; concentration 0.0137174, first replicate series, fraction of control) was 1.197, the “normalized signal at 0.0137174 (second series)” value ([1]; concentration 0.0137174, second replicate series, fraction of control) was 0.7634 and the “normalized signal at 0.0411523 (first series)” value ([1]; concentration 0.0411523, first replicate series, fraction of control) was 0.9517. For the same compound, the “normalized signal at 0.0411523 (second series)” value ([1]; concentration 0.0411523, second replicate series, fraction of control) was 0.9123, the “normalized signal at 0.123457 (first series)” value ([1]; concentration 0.123457, first replicate series, fraction of control) was 1.1239 and the “normalized signal at 0.123457 (second series)” value ([1]; concentration 0.123457, second replicate series, fraction of control) was 0.9202. For the same compound, the “normalized signal at 0.37037 (first series)” value ([1]; concentration 0.37037, first replicate series, fraction of control) was 0.912, the “normalized signal at 0.37037 (second series)” value ([1]; concentration 0.37037, second replicate series, fraction of control) was 0.776 and the “normalized signal at 1.11111 (first series)” value ([1]; concentration 1.11111, first replicate series, fraction of control) was 0.8174. For the same compound, the “normalized signal at 1.11111 (second series)” value ([1]; concentration 1.11111, second replicate series, fraction of control) was 0.8082, the “normalized signal at 3.33333 (first series)” value ([1]; concentration 3.33333, first replicate series, fraction of control) was 0.9935 and the “normalized signal at 3.33333 (second series)” value ([1]; concentration 3.33333, second replicate series, fraction of control) was 0.7269. For the same compound, the “normalized signal at 10 (first series)” value ([1]; concentration 10, first replicate series, fraction of control) was 1.005, the “normalized signal at 10 (second series)” value ([1]; concentration 10, second replicate series, fraction of control) was 0.7551 and the IC50 ([1]; 2nd round, Broad DOS compounds, unit not printed (dose series head 10 to 0.000508053)) was > 10 µM.

In the case of `CC(C)[C@@H]1COCc2cnnn2CCC[C@H](C)C(=O)N1` [BRD-K01882341-001-02-9], the IC50 (HepG2-A16-CD81EGFP cells; sheet "2nd round") is reported as > 10 µM, the “Tox_max_inhibition (%)” value (HepG2-A16-CD81EGFP cells; sheet "2nd round") is reported as 4.53% and the “normalised signal at concentration 0.000508053 (first series)” value ([1]; concentration 0.000508053, first series) is reported as 0.8014. The “normalised signal at concentration 0.000508053 (second series)” value ([1]; concentration 0.000508053, second series) was 0.9562, the “normalised signal at concentration 0.00152416 (first series)” value ([1]; concentration 0.00152416, first series) was 0.9047 and the “normalised signal at concentration 0.00152416 (second series)” value ([1]; concentration 0.00152416, second series) was 0.8755. The “normalised signal at concentration 0.00457247 (first series)” value ([1]; concentration 0.00457247, first series) was 0.9797, the “normalised signal at concentration 0.00457247 (second series)” value ([1]; concentration 0.00457247, second series) was 1.034 and the “normalised signal at concentration 0.0137174 (first series)” value ([1]; concentration 0.0137174, first series) was 0.9629. For the same compound, the “normalised signal at concentration 0.0137174 (second series)” value ([1]; concentration 0.0137174, second series) was 0.9854, the “normalised signal at concentration 0.0411523 (first series)” value ([1]; concentration 0.0411523, first series) was 0.8726 and the “normalised signal at concentration 0.0411523 (second series)” value ([1]; concentration 0.0411523, second series) was 0.8168. The “normalised signal at concentration 0.123457 (first series)” value ([1]; concentration 0.123457, first series) was 0.9418, the “normalised signal at concentration 0.123457 (second series)” value ([1]; concentration 0.123457, second series) was 1.121 and the “normalised signal at concentration 0.37037 (first series)” value ([1]; concentration 0.37037, first series) was 0.9345. The “normalised signal at concentration 0.37037 (second series)” value ([1]; concentration 0.37037, second series) was 0.7926, the “normalised signal at concentration 1.11111 (first series)” value ([1]; concentration 1.11111, first series) was 0.8828 and the “normalised signal at concentration 1.11111 (second series)” value ([1]; concentration 1.11111, second series) was 0.9806. For the same compound, the “normalised signal at concentration 3.33333 (first series)” value ([1]; concentration 3.33333, first series) was 0.9641, the “normalised signal at concentration 3.33333 (second series)” value ([1]; concentration 3.33333, second series) was 0.9379 and the “normalised signal at concentration 10 (first series)” value ([1]; concentration 10, first series of dose columns) was 1.091. For the same compound, the “normalised signal at concentration 10 (second series)” value ([1]; concentration 10, second series of dose columns) was 0.8693, the IC50 ([1]; sheet "2nd round", Broad compounds, dose response top concentration 10) was > 10 µM and the “PbLuc_max_inhibition (%)” value ([1]; sheet "2nd round") was 21%.

`COc1ccccc1NC(=O)N1C[C@@H]2N[C@H](C1)C2c1ccc(/C=C/c2ccccc2)cc1` (stereo partly drawn) [BRD-K72765192-019-01-4] was tested, and the IC50 (HepG2-A16-CD81EGFP cells; sheet 2nd round) was > 10 µM, the “Tox_max_inhibition (%)” value (HepG2-A16-CD81EGFP cells; [2]) was 5.61% and the “normalized signal at concentration 0.000508053” value [1, 9] was 0.9244. For the same compound, the “normalized signal at concentration 0.00152416” value [1, 9] was 0.9767, the “normalized signal at concentration 0.00457247” value [1, 9] was 0.9222 and the “normalized signal at concentration 0.0137174” value [1, 9] was 1.063. The “normalized signal at concentration 0.0411523” value [1, 9] was 0.9659, the “normalized signal at concentration 0.123457” value [1, 9] was 0.9808 and the “normalized signal at concentration 0.37037” value [1, 9] was 1.083. For the same compound, the “normalized signal at concentration 1.11111” value [1, 9] was 0.9875, the “normalized signal at concentration 3.33333” value [1, 9] was 1.091 and the “normalized signal at concentration 10” value [1, 9] was 0.9372. The IC50 ([1]; sheet 2nd round, Pb-Luc exoerythrocytic stage, 10-point dose response, top concentration 10) was > 10 µM, the “normalized signal at concentration 0.000508053” value [1, 10] was 0.82 and the “normalized signal at concentration 0.00152416” value [1, 10] was 0.9053. The “normalized signal at concentration 0.00457247” value [1, 10] was 1.027, the “normalized signal at concentration 0.0137174” value [1, 10] was 0.8721 and the “normalized signal at concentration 0.0411523” value [1, 10] was 0.9154. For the same compound, the “normalized signal at concentration 0.123457” value [1, 10] was 0.911, the “normalized signal at concentration 0.37037” value [1, 10] was 1.02 and the “normalized signal at concentration 1.11111” value [1, 10] was 0.9038. For the same compound, the “normalized signal at concentration 3.33333” value [1, 10] was 0.8733, the “normalized signal at concentration 10” value [1, 10] was 0.8146 and the “PbLuc_max_inhibition (%)” value [1, 2] was 19%.
